Test systems include SR; EKVX; SN12C; OVCAR-3; SF-295; OVCAR-8; SK-OV-3; LOX IMVI; KM12; 786-0; NCI-H23; A549; UACC-62; IGROV-1; HCT-15; OVCAR-4.
What all share (test): NCI-60 cell line screen, 48 h

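Results reflect a 48-hour exposure of cells in 96-well plates to compound at five concentrations. GI50 is the concentration that inhibits growth by half.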 Calls of active or inactive are those of the source. No stated cut-off is given here; in the data, active = GI50 up to about 1.1 µM and inactive = higher.

Turning to `C=CCC1(CC)C(=O)NC(=O)NC1=O` [ETALLOBARBITAL], the GI50 with SR is > 100 µM (inactive); with EKVX, > 100 µM (inactive); in the test on SN12C it was > 100 µM (inactive); in the test on OVCAR-3, > 100 µM (inactive); with SF-295, > 10 µM (inactive); in the test with OVCAR-8, > 100 µM (inactive). Besides, the GI50 with SK-OV-3, with LOX IMVI, in the test with KM12, in the test with 786-0, with NCI-H23 and with A549 was > 100 µM (inactive) throughout. Moreover, the GI50 with UACC-62 is > 100 µM (inactive); in the test with IGROV-1 it was > 100 µM (inactive); in the test with HCT-15, over 100 µM.

Consider `CCCCCC/C(CC(=O)CCC(=O)NCCc1ccccc1)=N\Nc1ccc([N+](=O)[O-])cc1[N+](=O)[O-]`, for which the GI50 in the test with SR was 20.6 µM (inactive); in the test on EKVX, 38.7 µM (inactive); in the test on SN12C it was 82 µM (inactive); with OVCAR-3 it was 51.3 µM (inactive); with SF-295 it was > 100 µM (inactive); with OVCAR-8, 89.3 µM (inactive). In addition, the GI50 with SK-OV-3 is > 100 µM (inactive); with LOX IMVI, 34.7 µM (inactive); with KM12 it was 67.8 µM (inactive); with 786-0, > 100 µM (inactive); with NCI-H23 it was 45 µM (inactive); in the test on A549, 87.7 µM (inactive). The GI50 with UACC-62 was 30.5 µM (inactive); with IGROV-1, > 100 µM (inactive); in the test on HCT-15 it was 69.3 µM.

For the molecule `Cc1cccc(N2C(=O)C(=O)C(c3nc4ccccc4s3)/C(=N/NC(=S)NN)C2=O)c1C` (stereo not drawn), the GI50 with EKVX, with SN12C, in the test on OVCAR-3, in the test on SF-295, with OVCAR-8 and with SK-OV-3 was > 100 µM (inactive) throughout. Moreover, the GI50 in the test with LOX IMVI, with KM12, with 786-0, in the test with OVCAR-4, in the test with NCI-H23 and in the test on UACC-62 was > 100 µM (inactive) in each case. The GI50 in the test with IGROV-1 is > 100 µM (inactive); in the test on HCT-15 it was over 100 µM.

In the case of `CC(/C(=N/NC(=O)C(N)=O)c1c(Cl)ccc(Cl)c1O)C1(O)C(=O)Nc2ccccc21` (stereo not drawn), the GI50 in the test with EKVX is 43.3 µM (inactive); in the test on SN12C, 70.3 µM (inactive); in the test on OVCAR-3 it was 28.6 µM (inactive); in the test on SF-295, > 100 µM (inactive); in the test with OVCAR-8, 29.7 µM (inactive); with SK-OV-3 it was > 100 µM (inactive). Besides, the GI50 in the test with LOX IMVI was 30.1 µM (inactive); in the test with KM12, 30.4 µM (inactive); with 786-0 it was 57 µM (inactive); with OVCAR-4, 29.6 µM (inactive); in the test on NCI-H23 it was 50.6 µM (inactive); with A549, 50.2 µM (inactive). Further, the figures for the GI50 in the test with UACC-62, with IGROV-1 and with HCT-15 were 49.1 µM (inactive), 29.9 µM (inactive) and 34.1 µM, respectively.

Consider `O=[N+]([O-])c1cccc(C2ON2C2CCCCC2)c1` (stereo not drawn), for which the GI50 in the test with SR was 2.4 µM (inactive); with EKVX it was 44 µM (inactive); in the test with SN12C, 18.3 µM (inactive); with OVCAR-3 it was 18.5 µM (inactive); with SF-295 it was > 100 µM (inactive); in the test on OVCAR-8, 17.6 µM (inactive). For the same molecule, the GI50 is 35.2 µM (inactive) with SK-OV-3; 8.81 µM (inactive) in the test with KM12; 17.4 µM (inactive) with 786-0; 17.8 µM (inactive) in the test with OVCAR-4; 24.7 µM (inactive) in the test with NCI-H23; 30.1 µM (inactive) in the test on A549. Besides, the values for the GI50 in the test with UACC-62, with IGROV-1 and in the test on HCT-15 were 20.4 µM (inactive), 20 µM (inactive) and 16.9 µM, respectively.

Take `COC(=O)/C(C#N)=C1\CCC(C(=O)OC)N1C` (stereo not drawn): the GI50 with SR, in the test with EKVX, in the test on SN12C, in the test on OVCAR-3, with SF-295 and in the test on OVCAR-8 was > 100 µM (inactive) in each case. Moreover, the GI50 in the test with SK-OV-3, in the test with KM12, with 786-0, with OVCAR-4, with NCI-H23 and in the test with A549 was > 100 µM (inactive) each time. In addition, the GI50 is > 100 µM (inactive) with UACC-62, > 100 µM (inactive) in the test with IGROV-1 and over 100 µM with HCT-15.

On to `OCc1c[te]c(-c2ccccc2)c1`, for which the GI50 is 99.8 µM (inactive) with EKVX; 16 µM (inactive) with SN12C; 15.5 µM (inactive) in the test on OVCAR-3; 2.25 µM (inactive) with SF-295; 34.4 µM (inactive) in the test with OVCAR-8; > 100 µM (inactive) in the test with SK-OV-3. Moreover, the GI50 in the test with KM12 was 80.5 µM (inactive); in the test with 786-0, > 100 µM (inactive); in the test on OVCAR-4, 32 µM (inactive); in the test with NCI-H23, 22.1 µM (inactive); in the test with A549 it was 63.2 µM (inactive); with UACC-62, 31.3 µM (inactive). For the same molecule, the values for the GI50 with IGROV-1 and in the test with HCT-15 were > 100 µM (inactive) and 20.2 µM, respectively.

For the molecule `COc1cc(C2C(C(=O)Nc3ccccc3)=C(C)NC(C)=C2C(=O)Nc2ccccc2)ccc1O`, the GI50 in the test on SR is 25.9 µM (inactive); in the test with EKVX it was 83.4 µM (inactive); with SN12C, 39.5 µM (inactive); with OVCAR-3, 23 µM (inactive); in the test on SF-295, 49.9 µM (inactive); with OVCAR-8, 30.1 µM (inactive). Besides, the GI50 is > 10 µM (inactive) in the test with LOX IMVI; 31 µM (inactive) in the test on KM12; 37.8 µM (inactive) with 786-0; 29.1 µM (inactive) in the test on OVCAR-4; 39.5 µM (inactive) in the test with NCI-H23; 40.6 µM (inactive) in the test with A549. Also, the GI50 in the test with IGROV-1 was 37 µM (inactive); in the test on HCT-15, 43.5 µM.

`COc1c(C(=O)c2ccc([N+](=O)[O-])cc2)cc(C(C)(C)C)cc1C(C)(C)C`: the GI50 is 17.1 µM (inactive) in the test with SR; 47.4 µM (inactive) with EKVX; 39 µM (inactive) in the test on SN12C; 39.1 µM (inactive) in the test on SF-295; 52.7 µM (inactive) in the test with OVCAR-8; > 100 µM (inactive) in the test with SK-OV-3. For the same molecule, the GI50 in the test with LOX IMVI was 12.3 µM (inactive); in the test on KM12 it was 16.9 µM (inactive); with 786-0, 40.9 µM (inactive); with OVCAR-4, 43.1 µM (inactive); in the test on NCI-H23, 34.7 µM (inactive); with A549, 31 µM (inactive). For the same molecule, the results for the GI50 in the test with UACC-62, in the test with IGROV-1 and with HCT-15 were 16.7 µM (inactive), 72.4 µM (inactive) and 32 µM, respectively.

On to `COc1cc2ccn3c4cc(OC)c(OC)cc4cc3c2cc1OC`, for which the GI50 in the test with SR was > 100 µM (inactive); with EKVX, 98.2 µM (inactive); in the test on SN12C, > 100 µM (inactive); in the test on OVCAR-3, 58.6 µM (inactive); in the test with SF-295, > 100 µM (inactive); with OVCAR-8, > 100 µM (inactive). The GI50 was > 100 µM (inactive) with SK-OV-3; > 100 µM (inactive) in the test with KM12; 33.5 µM (inactive) in the test on 786-0; > 100 µM (inactive) with OVCAR-4; > 100 µM (inactive) in the test with NCI-H23; > 100 µM (inactive) in the test on A549. In addition, in the test on UACC-62, the GI50 is > 100 µM (inactive).

`Cc1ccc(C2=CC(=O)c3ccccc3C2=O)n1-c1ccccc1`: the GI50 is > 100 µM (inactive) in the test on EKVX; > 100 µM (inactive) with SN12C; 87.1 µM (inactive) in the test on OVCAR-3; > 100 µM (inactive) in the test with SF-295; > 100 µM (inactive) with OVCAR-8; > 100 µM (inactive) in the test on SK-OV-3. Further, the GI50 with LOX IMVI is > 100 µM (inactive); in the test with KM12, 43.1 µM (inactive); in the test on 786-0 it was > 100 µM (inactive); in the test with OVCAR-4, 25.6 µM (inactive); in the test with NCI-H23 it was > 100 µM (inactive); in the test on A549 it was > 100 µM (inactive). The values for the GI50 in the test with UACC-62 and in the test on IGROV-1 were 41.9 µM (inactive) and > 100 µM (inactive), respectively.

With `CN(C)c1ccc2c(NCCCCCCNc3ccnc4cc(N(C)C)ccc34)ccnc2c1`, the GI50 is 7.73 µM (inactive) with SR; 36.1 µM (inactive) in the test on EKVX; 6.79 µM (inactive) in the test with SN12C; 13.7 µM (inactive) in the test on OVCAR-3; 10.7 µM (inactive) in the test on SF-295; 7.29 µM (inactive) with OVCAR-8. The GI50 with SK-OV-3 was > 100 µM (inactive); with KM12, 8.26 µM (inactive); in the test on 786-0, 20.8 µM (inactive); with OVCAR-4, 11.9 µM (inactive); in the test with NCI-H23, 10.1 µM (inactive); in the test with A549 it was > 100 µM (inactive). Further, the figures for the GI50 with UACC-62 and with HCT-15 were > 100 µM (inactive) and over 100 µM, respectively.

For the molecule `COc1ccc(C[C@@H]2Cc3cc(OC)c(OC)cc3CN2C)cc1`, the GI50 is > 100 µM (inactive) in the test on EKVX; > 100 µM (inactive) with SN12C; > 100 µM (inactive) with OVCAR-3; 57 µM (inactive) in the test with SF-295; > 100 µM (inactive) in the test on OVCAR-8; > 100 µM (inactive) in the test on KM12. In addition, the GI50 with 786-0 is > 100 µM (inactive); with OVCAR-4, 76.4 µM (inactive); with NCI-H23, > 100 µM (inactive); in the test with A549, > 100 µM (inactive); in the test on HCT-15, over 100 µM.

For `CN(C)c1ccc(-c2cc(O)c3cc4c(cc3n2)OCO4)cc1`, the GI50 in the test with SR, in the test with EKVX, in the test on SN12C, in the test with OVCAR-3, in the test with SF-295 and in the test with OVCAR-8 was > 100 µM (inactive) each time. For the same molecule, the GI50 in the test with LOX IMVI, with 786-0, in the test on OVCAR-4, with NCI-H23, with A549 and in the test on UACC-62 was > 100 µM (inactive) in each case. The values for the GI50 in the test with IGROV-1 and in the test on HCT-15 were > 100 µM (inactive) and over 100 µM, respectively.

The record behind these values is ChEMBL document CHEMBL1201862, “PubChem BioAssay data set” (2004).
